Source: patent publication US20230021483A1, “[…] […] METHOD AND CLASSIFICATION OF PHARMACEUTICAL COMPONENTS BY USING TRANSCRIPTOMES” (National Institutes of Biomedical Innovation, Health and …, priority 2016, published 2023)
Several values for one entry are separate records, joined by “and”; a condition that tells them apart may be missing. Identical values can stand only once.

Key:
Assay type in all cases: in vivo, C57BL/6 mice
[1] = system: inguinal lymph nodes (LN); assay: Whole organ transcriptome (GeneChip microarray) of draining inguinal lymph nodes 6 h after adjuvant administration: sDEGs, gene modules, hierarchical clustering; details: lymph node; on adjuvant group (cluster) in LN: key: G1 (interferon signaling); G2 (metabolism of lipids and lipoproteins); G3 (response to stress); G4 (response to wounding); G5 (phosphate-containing compound metabolic process); G6 (phagosome)
[2] = system: LV, SP and LNs; assay: Whole organ transcriptome across organs (adjuvant gene space): gene responses and adjuvant grouping
[3] = system: preferentially upregulated genes in LV, SP, LN; assay: Z-score-based differential gene expression analysis (adjuvant group- or adjuvant-associated genes, 40 module mapping, TargetMine annotation); details: for Adar 1425405_a_at (Group G1, Modules 20) / Adar 1434268_at (Group G1, Modules 20) / Ddx58 1436562_at (Group G1, Modules 20) / Ddx58 1456890_at (Group G1, Modules 20) / Gm9706///Isg15 1431591_s_at (Group G1, Modules 20) / Ifit1 1450783_at (Group G1, Modules 20) / Ifit3 1449025_at (Group G1, Modules 20) / Irgm1 1418825_at (Group G1, Modules 20) / Mndal 1426906_at (Group G1, Modules 20) / Rsad2 1436058_at (Group G1, Modules 20) / Shisa5 1423986_a_at (Group G1, Modules 20) / Shisa5 1437503_a_at (Group G1, Modules 20) / Stat1 1450033_a_at (Group G1, Modules 20) / Stat1 1450034_at (Group G1, Modules 20) / Tor1aip2 1435526_at (Group G1, Modules 20): IP, LV
Procedure, shortened: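 Gene groups for each organ were built from combined z-score cutoffs across adjuvants, ranging from z>1 to z>3. Scores came from fold changes standardized per gene over the whole organ data set, with the three replicate z-scores added per adjuvant; sums above 3 marked preferential expression.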

[4] = liver (LV), gene group G1, module 20, individual mice x1-x3, route ID/IP/IN

Compound: CC(O)COC[C@H]1O[C@@H]2O[C@H]3[C@H](O)[C@@H](O)[C@@H](O[C@H]4[C@H](O)[C@@H](O)[C@@H](O[C@H]5[C@H](O)[C@@H](O)[C@@H](O[C@H]6[C@H](O)[C@@H](O)[C@@H](O[C@H]7[C@H](O)[C@@H](O)[C@@H](O[C@H]8[C@H](O)[C@@H](O)[C@@H](O[C@H]1[C@H](O)[C@H]2O)O[C@@H]8COCC(C)O)O[C@@H]7COCC(C)O)O[C@@H]6COCC(C)O)O[C@@H]5COCC(C)O)O[C@@H]4COCC(C)O)O[C@@H]3COCC(C)O (stereo partly drawn) [bCD, Hydroxypropyl-beta-cyclodextrin]
- adjuvant group (cluster) in LN ([1]; hierarchical clustering): G2
- Number of gene probes with statistically significant changes (sDEGs), LN, Down ([1]; i.d. administration, fold change <0.667, p<0.01, customized PA call=1, 6 h after adjuvant): 110
- Number of gene probes with statistically significant changes (sDEGs), LN, Up ([1]; i.d. administration, fold change >1.5, p<0.01, customized PA call=1, 6 h after adjuvant): 89
- gene expression changes in LV and SP ([2]; 6 h, Table 15, route not given): relatively weaker responses
- adjuvant group (cluster) within the adjuvant gene space ([2]; hierarchical clustering, LV, SP and/or LNs): G2
- Adar 1425405_a_at (Group G1, Modules 20) ([3]; sample x1): −0.5
- Adar 1434268_at (Group G1, Modules 20) ([3]; sample x1): −0.3
- Ddx58 1436562_at (Group G1, Modules 20) ([3]; sample x1): −0.4
- Ddx58 1456890_at (Group G1, Modules 20) ([3]; sample x1): −0.6
- Gm9706///Isg15 1431591_s_at (Group G1, Modules 20) ([3]; sample x1): −0.5
- Ifit1 1450783_at (Group G1, Modules 20) ([3]; sample x1): −0.5
- Ifit3 1449025_at (Group G1, Modules 20) ([3]; sample x1): −0.5
- Irgm1 1418825_at (Group G1, Modules 20) ([3]; sample x1): −0.5
- Mndal 1426906_at (Group G1, Modules 20) ([3]; sample x1): −0.3
- Rsad2 1436058_at (Group G1, Modules 20) ([3]; sample x1): −0.5
- Shisa5 1423986_a_at (Group G1, Modules 20) ([3]; sample x1): −0.6
- Shisa5 1437503_a_at (Group G1, Modules 20) ([3]; sample x1): −0.4
- Stat1 1450033_a_at (Group G1, Modules 20) ([3]; sample x1): −0.5
- Stat1 1450034_at (Group G1, Modules 20) ([3]; sample x1): −0.5
- Tor1aip2 1435526_at (Group G1, Modules 20) ([3]; sample x1): −0.4
- Adar 1425405_a_at (Group G1, Modules 20) ([3]; sample x2): −0.4
- Adar 1434268_at (Group G1, Modules 20) ([3]; sample x2): −0.4
- Ddx58 1436562_at (Group G1, Modules 20) ([3]; sample x2): −0.3
- Ddx58 1456890_at (Group G1, Modules 20) ([3]; sample x2): −0.4
- Gm9706///Isg15 1431591_s_at (Group G1, Modules 20) ([3]; sample x2): −0.5
- Ifit1 1450783_at (Group G1, Modules 20) ([3]; sample x2): −0.5
- Ifit3 1449025_at (Group G1, Modules 20) ([3]; sample x2): −0.5
- Irgm1 1418825_at (Group G1, Modules 20) ([3]; sample x2): −0.6
- Mndal 1426906_at (Group G1, Modules 20) ([3]; sample x2): −0.3
- Rsad2 1436058_at (Group G1, Modules 20) ([3]; sample x2): −0.4
- Shisa5 1423986_a_at (Group G1, Modules 20) ([3]; sample x2): −0.3
- Shisa5 1437503_a_at (Group G1, Modules 20) ([3]; sample x2): −0.3
- Stat1 1450033_a_at (Group G1, Modules 20) ([3]; sample x2): −0.6
- Stat1 1450034_at (Group G1, Modules 20) ([3]; sample x2): −0.5
- Tor1aip2 1435526_at (Group G1, Modules 20) ([3]; sample x2): −0.3
- Adar 1425405_a_at (Group G1, Modules 20) ([3]; sample x3): −0.3
- Adar 1434268_at (Group G1, Modules 20) ([3]; sample x3): −0.4
- Ddx58 1436562_at (Group G1, Modules 20) ([3]; sample x3): −0.1
- Ddx58 1456890_at (Group G1, Modules 20) ([3]; sample x3): −0.3
- Gm9706///Isg15 1431591_s_at (Group G1, Modules 20) ([3]; sample x3): −0.5
- Ifit1 1450783_at (Group G1, Modules 20) ([3]; sample x3): −0.5
- Ifit3 1449025_at (Group G1, Modules 20) ([3]; sample x3): −0.5
- Irgm1 1418825_at (Group G1, Modules 20) ([3]; sample x3): −0.5
- Mndal 1426906_at (Group G1, Modules 20) ([3]; sample x3): −0.5
- Rsad2 1436058_at (Group G1, Modules 20) ([3]; sample x3): −0.4
- Shisa5 1423986_a_at (Group G1, Modules 20) ([3]; sample x3): −0.3
- Shisa5 1437503_a_at (Group G1, Modules 20) ([3]; sample x3): −0.3
- Stat1 1450033_a_at (Group G1, Modules 20) ([3]; sample x3): −0.5
- Stat1 1450034_at (Group G1, Modules 20) ([3]; sample x3): −0.5
- Tor1aip2 1435526_at (Group G1, Modules 20) ([3]; sample x3): −0.6
- Z score of gene expression, Adar (probe 1425405_a_at) [3, 4]: −0.4 and −0.6 and −0.7
- Z score of gene expression, Adar (probe 1434268_at) [3, 4]: −0.1 and −0.5 and −0.3
- Z score of gene expression, Ddx58 (probe 1436562_at) [3, 4]: −0.7
- Z score of gene expression, Ddx58 (probe 1456890_at) [3, 4]: −0.6 and −0.7 (2×)
- Z score of gene expression, Eif2ak2 (probe 1422005_at) [3, 4]: −0.4 and −0.6 and −0.5
- Z score of gene expression, G3bp2 (probe 1421323_a_at) [3, 4]: −0.3 (2×) and −0.4
- Z score of gene expression, Gm9706///Isg15 (probe 1431591_s_at) [3, 4]: −0.5
- Z score of gene expression, H2-T10///H2-T22///H2-T9 (probe 1449875_s_at) [3, 4]: −0.6 (2×) and −0.8
- Z score of gene expression, Ifih1 (probe 1426276_at) [3, 4]: −0.5 and −0.6 (2×)
- Z score of gene expression, Ifit1 (probe 1449025_at) [3, 4]: −0.5
- Z score of gene expression, Ifit1 (probe 1450783_at) [3, 4]: −0.5
- Z score of gene expression, Irf7 (probe 1417244_a_at) [3, 4]: −0.4 (2×) and −0.5
- Z score of gene expression, Irgm1 (probe 1418825_at) [3, 4]: −0.5 and −0.7 and −0.6
- Z score of gene expression, Mndal (probe 1426906_at) [3, 4]: −0.5 and −0.6 (2×)
- Z score of gene expression, Pml (probe 1448757_at) [3, 4]: −0.6 and −0.7 (2×)
- Z score of gene expression, Pml (probe 1456103_at) [3, 4]: −0.6 (2×) and −0.5
- Z score of gene expression, Rnf213 (probe 1455500_at) [3, 4]: −0.5 and −0.6 (2×)
- Z score of gene expression, Rsad2 (probe 1436058_at) [3, 4]: −0.5
- Z score of gene expression, Shisa5 (probe 1423986_a_at) [3, 4]: −0.6 and −0.7 and −0.8
- Z score of gene expression, Shisa5 (probe 1437503_a_at) [3, 4]: −0.4 and −0.7 and −0.5
- Z score of gene expression, Stat1 (probe 1450033_a_at) [3, 4]: −0.6
- Z score of gene expression, Stat1 (probe 1450034_at) [3, 4]: −0.5 and −0.6 (2×)
- Z score of gene expression, Tdrd7 (probe 1426716_at) [3, 4]: −0.7 and −1 and −0.9
- Z score of gene expression, Tor1aip2 (probe 1418115_s_at) [3, 4]: −0.2 and −0.7 and −0.6
- Z score of gene expression, Tor1aip2 (probe 1418116_at) [3, 4]: −0.4 and −0.8 and −0.6
- Z score of gene expression, Tor1aip2 (probe 1435526_at) [3, 4]: −0.4 (2×) and −0.7
- Z score of gene expression, Trim12a (probe 1437432_a_at) [3, 4]: −0.5
- Z score of gene expression, Uba7 (probe 1426970_a_at) [3, 4]: −0.6 (2×) and −0.7
